Test results reported in ChEMBL document CHEMBL1201862, “PubChem BioAssay data set” (2004).
Where “and” joins values, the source holds several entries; their conditions need not be identical. Equal entries are not always repeated.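 Each compound was tested at five concentrations against cells in 96-well plates for 48 hours. The concentration for 50% growth inhibition is given as GI50.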 Calls of active or inactive are those of the source. No stated cut-off is given here; in the data, active = GI50 up to about 1.1 µM and inactive = higher.

Columns and labels:
Test in all cases: NCI-60 cell line screen, 48 h
[1] = system: 786-0
[2] = system: A549
[3] = system: ACHN
[4] = system: CAKI-1
[5] = system: CCRF-CEM
[6] = system: COLO 205
[7] = system: DLD-1
[8] = system: DMS-114
[9] = system: EKVX
[10] = system: HCT-116
[11] = system: HCT-15
[12] = system: HL-60
[13] = system: HOP-18
[14] = system: HOP-62
[15] = system: HOP-92
[16] = system: HT-29
[17] = system: IGROV-1
[18] = system: K562
[19] = system: KM-20L2
[20] = system: KM12
[21] = system: LXFL 529
[22] = system: M14
[23] = system: M19-MEL
[24] = system: MOLT-4
[25] = system: Malme-3M
[26] = system: NCI-H226
[27] = system: NCI-H23
[28] = system: NCI-H460
[29] = system: NCI-H522
[30] = system: OVCAR-3
[31] = system: OVCAR-4
[32] = system: OVCAR-8
[33] = system: RPMI-8226
[34] = system: RXF 393
[35] = system: SF-268
[36] = system: SF-295
[37] = system: SF-539
[38] = system: SK-MEL-28
[39] = system: SK-MEL-2
[40] = system: SK-MEL-5
[41] = system: SK-OV-3
[42] = system: SN12C
[43] = system: SNB-19
[44] = system: SNB-75
[45] = system: SR
[46] = system: SW-620
[47] = system: TK-10
[48] = system: U-251
[49] = system: UACC-257
[50] = system: UACC-62
[51] = system: UO-31
[52] = system: DMS-273
[53] = system: MCF7
[54] = system: NCI/ADR-RES
[55] = system: A498
[56] = system: BT-549
[57] = system: DU-145
[58] = system: Hs-578T
[59] = system: MDA-MB-231
[60] = system: MDA-MB-435
[61] = system: MDA-N
[62] = system: OVCAR-5
[63] = system: PC-3
[64] = system: SNB-78
[65] = system: T47D

## [N-]=[N+]=Nc1ccccc1-[n+]1noc([O-])c1Br
[1]
  GI50: > 100 µM (inactive)
[2]
  GI50: > 100 µM (inactive)
[3]
  GI50: > 100 µM (inactive)
[4]
  GI50: > 100 µM (inactive)
[5]
  GI50: > 100 µM (inactive)
[6]
  GI50: > 100 µM (inactive)
[7]
  GI50: > 100 µM (inactive)
[8]
  GI50: > 100 µM (inactive)
[9]
  GI50: > 100 µM (inactive)
[10]
  GI50: > 100 µM (inactive)
[11]
  GI50: > 100 µM
[12]
  GI50: > 100 µM (inactive)
[13]
  GI50: > 100 µM (inactive)
[14]
  GI50: > 100 µM (inactive)
[15]
  GI50: > 100 µM (inactive)
[16]
  GI50: > 100 µM (inactive)
[17]
  GI50: > 100 µM (inactive)
[18]
  GI50: > 100 µM (inactive)
[19]
  GI50: > 100 µM (inactive)
[20]
  GI50: > 100 µM (inactive)
[21]
  GI50: > 100 µM (inactive)
[22]
  GI50: > 100 µM (inactive)
[23]
  GI50: > 100 µM (inactive)
[24]
  GI50: > 100 µM (inactive)
[25]
  GI50: > 100 µM (inactive)
[26]
  GI50: > 100 µM (inactive)
[27]
  GI50: > 100 µM (inactive)
[28]
  GI50: > 100 µM (inactive)
[29]
  GI50: > 100 µM (inactive)
[30]
  GI50: > 100 µM (inactive)
[31]
  GI50: > 100 µM (inactive)
[32]
  GI50: > 100 µM (inactive)
[33]
  GI50: > 100 µM (inactive)
[34]
  GI50: > 100 µM (inactive)
[35]
  GI50: > 100 µM (inactive)
[36]
  GI50: > 100 µM (inactive)
[37]
  GI50: > 100 µM (inactive)
[38]
  GI50: > 100 µM (inactive)
[39]
  GI50: > 100 µM (inactive)
[40]
  GI50: > 100 µM (inactive)
[41]
  GI50: > 100 µM (inactive)
[42]
  GI50: > 100 µM (inactive)
[43]
  GI50: > 100 µM (inactive)
[44]
  GI50: > 100 µM (inactive)
[45]
  GI50: > 100 µM (inactive)
[46]
  GI50: > 100 µM (inactive)
[47]
  GI50: > 100 µM (inactive)
[48]
  GI50: > 100 µM (inactive)
[49]
  GI50: > 100 µM (inactive)
[50]
  GI50: > 100 µM (inactive)
[51]
  GI50: > 100 µM (inactive)

## O=C(O)/C=C/c1c[nH]c(=O)[nH]c1=O
[2]
  GI50: > 500 µM (inactive)
[4]
  GI50: > 500 µM (inactive)
[5]
  GI50: > 316 µM (inactive)
[8]
  GI50: > 500 µM (inactive)
[52]
  GI50: > 500 µM (inactive)
[12]
  GI50: > 446 µM (inactive)
[13]
  GI50: > 500 µM (inactive)
[18]
  GI50: > 500 µM (inactive)
[19]
  GI50: > 500 µM (inactive)
[23]
  GI50: > 500 µM (inactive)
[53]
  GI50: > 500 µM (inactive)
[24]
  GI50: > 281 µM (inactive)
[26]
  GI50: 489 µM (inactive)
[27]
  GI50: > 500 µM (inactive)
[54]
  GI50: > 344 µM (inactive)
[36]
  GI50: > 232 µM (inactive)
[41]
  GI50: > 500 µM (inactive)
[44]
  GI50: > 500 µM (inactive)

## COc1cc2c3cc1Oc1c(OC)c(OC)cc4c1C(Cc1ccc(cc1)Oc1cc(ccc1O)CC3N(C)CC2)N(C)CC4 (stereo not drawn)
[55]
  GI50: 16.1 µM (inactive)
[2]
  GI50: 14.9 µM (inactive) and 8.99 µM (inactive)
[56]
  GI50: 10.1 µM (inactive)
[4]
  GI50: 14.3 µM (inactive) and 16.9 µM (inactive)
[7]
  GI50: 11.4 µM (inactive)
[8]
  GI50: 11.9 µM (inactive)
[57]
  GI50: 10.6 µM (inactive)
[9]
  GI50: 24.9 µM (inactive) and 13.1 µM (inactive)
[10]
  GI50: 4.6 µM (inactive) and 6.76 µM (inactive)
[13]
  GI50: > 100 µM (inactive)
[14]
  GI50: 18.1 µM (inactive)
[15]
  GI50: 16.2 µM (inactive)
[16]
  GI50: 2.78 µM (inactive) and 5.09 µM (inactive)
[58]
  GI50: 10.8 µM (inactive)
[17]
  GI50: 16.7 µM (inactive) and 11.4 µM (inactive)
[18]
  GI50: 1.49 µM (inactive) and 1.71 µM (inactive)
[19]
  GI50: 10.4 µM (inactive)
[20]
  GI50: 11.9 µM (inactive) and 11.4 µM (inactive)
[21]
  GI50: 13.6 µM (inactive)
[22]
  GI50: 1.87 µM (inactive) and 2 µM (inactive)
[23]
  GI50: 11.9 µM (inactive)
[53]
  GI50: 6.44 µM (inactive)
[59]
  GI50: 10.1 µM (inactive)
[60]
  GI50: 8.09 µM (inactive)
[61]
  GI50: 4.73 µM (inactive)
[24]
  GI50: 4.41 µM (inactive) and 5.09 µM (inactive)
[25]
  GI50: 7.01 µM (inactive) and 14 µM (inactive)
[26]
  GI50: 16.8 µM (inactive) and 18.9 µM (inactive)
[27]
  GI50: 12.8 µM (inactive) and 17.1 µM (inactive)
[54]
  GI50: 19.3 µM (inactive)
[30]
  GI50: 13.6 µM (inactive) and 15.8 µM (inactive)
[31]
  GI50: 12.4 µM (inactive) and 14.1 µM (inactive)
[62]
  GI50: 18.5 µM (inactive) and 14.8 µM (inactive)
[63]
  GI50: 10.4 µM (inactive)
[33]
  GI50: 6.64 µM (inactive)
[34]
  GI50: 1.29 µM (inactive) and 1.09 µM (active)
[35]
  GI50: 14.1 µM (inactive) and 10.8 µM (inactive)
[39]
  GI50: 12.9 µM (inactive) and 8.69 µM (inactive)
[41]
  GI50: 13.4 µM (inactive) and 25.6 µM (inactive)
[42]
  GI50: 21.7 µM (inactive) and 15.1 µM (inactive)
[44]
  GI50: 11.1 µM (inactive) and 11.8 µM (inactive)
[64]
  GI50: 20.9 µM (inactive)
[45]
  GI50: 2.78 µM (inactive) and 2.06 µM (inactive)
[46]
  GI50: 10.3 µM (inactive) and 8.36 µM (inactive)
[65]
  GI50: 11.3 µM (inactive)
[47]
  GI50: 12.1 µM (inactive) and 22.8 µM (inactive)
[48]
  GI50: 11.2 µM (inactive) and 9.08 µM (inactive)
[50]
  GI50: 8.89 µM (inactive) and 15.1 µM (inactive)
[51]
  GI50: 4.9 µM (inactive) and 8.28 µM (inactive)
